The results in this text go back to US5522922A, “Aqueous ink composition” (priority 1993, dated 1996).

This data set in a line: LD50, oral dosing of mice or rabbits. To be noted: in vivo. From the text:
LD50 means a lethal dose (mg/kg) necessary to kill more than half of examined mice or rabbits when the mice or rabbits are orally dosed with a certain concentration. Safety improves as LD50 increases.
As is clear from Table 11, an aqueous ink composition of the present invention is 5 to 8 times more safe than a conventional aqueous ink composition. Therefore, to maintain this standard of safety, triethanolamine used in the present invention is limited to triethanolamine meeting the standards described in the present specification and the Japanese Standards of Cosmetic Ingredient (Yakuji Nippo, Ltd., second edition).

`CCN(CC)N=O` [Diethyl nitrosamine, diethyl nitrosamine] showed an LD50 of 15 mg/kg.
